Assay results reported in PubChem BioAssay AID2060896 (Molecular Pharmacology Branch, DTP, NCI, 2025).

System: 941728-121-R-J1-PDC complex spheroid viability
Assay: Anticancer human tumor 941728-121-R-J1-PDC patient-derived lung adenocarcinoma cell line growth inhibition [RAS]
Conditions: for IC50: curve of first compound; for viability, T/C: stronger effect = lower value
Procedure, shortened: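 Tumour cells grown as complex spheroids with HUVEC endothelial cells and mesenchymal stem cells, treated with RAS pathway inhibitor combinations. Each agent spans half-log steps from near clinical Cmax, or 10 microM where Cmax is unknown.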
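Note: spheroids exposed to compounds for 7 days before readout.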
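Throughout, for viability, T/C: 100% = DMSO vehicle control viability.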

For `C=CC(=O)N1CCN(c2nc(OCC3CCCN3C)nc3c(F)c(-c4nc(N)cc(C)c4C(F)(F)F)c(Cl)cc23)C(C)C1` (centres undefined) + C#Cc1c(F)ccc2cc(O)cc(-c3ncc4c(N5CC6CCC(C5)N6)nc(OCC56CCCN5CC(F)C6)nc4c3F)c12, the IC50 (second compound 0.0316 µM) was less than 3.16 nM, the IC50 (second compound 0.1 µM) was less than 3.16 nM and the IC50 (second compound 0.316 µM) was less than 3.16 nM. It also gave an IC50 (second compound 1 µM) of less than 3.16 nM, an IC50 (second compound 3.16 µM) of less than 3.16 nM and an IC50 (second compound 10 µM) of less than 3.16 nM. It also gave a viability, T/C (second compound 0.0316 µM, first compound 0.00316 µM) of 22.3%, a viability, T/C (second compound 0.0316 µM, first compound 0.01 µM) of 20.1% and a viability, T/C (second compound 0.0316 µM, first compound 0.0316 µM) of 18.7%. It also gave a viability, T/C (second compound 0.0316 µM, first compound 0.1 µM) of 21%, a viability, T/C (second compound 0.0316 µM, first compound 0.316 µM) of 22.6% and a viability, T/C (second compound 0.0316 µM, first compound 1 µM) of 21.2%. It also gave a viability, T/C (second compound 0.1 µM, first compound 0.00316 µM) of 22.9%, a viability, T/C (second compound 0.1 µM, first compound 0.01 µM) of 19.5% and a viability, T/C (second compound 0.1 µM, first compound 0.0316 µM) of 21.8%. The viability, T/C (second compound 0.1 µM, first compound 0.1 µM) was 20.7%, the viability, T/C (second compound 0.1 µM, first compound 0.316 µM) was 19.8% and the viability, T/C (second compound 0.1 µM, first compound 1 µM) was 23.9%. The viability, T/C (second compound 0.316 µM, first compound 0.00316 µM) was 22.1%, the viability, T/C (second compound 0.316 µM, first compound 0.01 µM) was 22.2% and the viability, T/C (second compound 0.316 µM, first compound 0.0316 µM) was 21%. For the same compound, the viability, T/C (second compound 0.316 µM, first compound 0.1 µM) was 23.4%, the viability, T/C (second compound 0.316 µM, first compound 0.316 µM) was 20.7% and the viability, T/C (second compound 0.316 µM, first compound 1 µM) was 21.4%. The viability, T/C (second compound 1 µM, first compound 0.00316 µM) was 21.3%, the viability, T/C (second compound 1 µM, first compound 0.01 µM) was 19.5% and the viability, T/C (second compound 1 µM, first compound 0.0316 µM) was 22%. The viability, T/C (second compound 1 µM, first compound 0.1 µM) was 21.5%, the viability, T/C (second compound 1 µM, first compound 0.316 µM) was 22.2% and the viability, T/C (second compound 1 µM, first compound 1 µM) was 22.5%. For the same compound, the viability, T/C (second compound 3.16 µM, first compound 0.00316 µM) was 22.8%, the viability, T/C (second compound 3.16 µM, first compound 0.01 µM) was 20.1% and the viability, T/C (second compound 3.16 µM, first compound 0.0316 µM) was 22%. It also gave a viability, T/C (second compound 3.16 µM, first compound 0.1 µM) of 20.3%, a viability, T/C (second compound 3.16 µM, first compound 0.316 µM) of 22% and a viability, T/C (second compound 3.16 µM, first compound 1 µM) of 22.3%. For the same compound, the viability, T/C (second compound 10 µM, first compound 0.00316 µM) was 21.9%, the viability, T/C (second compound 10 µM, first compound 0.01 µM) was 21.1% and the viability, T/C (second compound 10 µM, first compound 0.0316 µM) was 17.5%. The viability, T/C (second compound 10 µM, first compound 0.1 µM) was 17.8%, the viability, T/C (second compound 10 µM, first compound 0.316 µM) was 18.2% and the viability, T/C (second compound 10 µM, first compound 1 µM) was 14.7%.
In the case of `CC1(C)CCC(Nc2ncc(C(F)(F)F)c(-c3c[nH]c4c(P(C)(C)=O)c(C#N)ccc34)n2)CN1` (centres undefined) + C#Cc1c(F)ccc2cc(O)cc(-c3ncc4c(N5CC6CCC(C5)N6)nc(OCC56CCCN5CC(F)C6)nc4c3F)c12, the IC50 (second compound 0.0316 µM) is reported as greater than 300 nM, the IC50 (second compound 0.1 µM) is reported as greater than 300 nM and the IC50 (second compound 0.316 µM) is reported as less than 0.949 nM. For the same compound, the IC50 (second compound 1 µM) was less than 0.949 nM, the IC50 (second compound 3.16 µM) was less than 0.949 nM and the IC50 (second compound 10 µM) was less than 0.949 nM. It also gave a viability, T/C (second compound 0.0316 µM, first compound 0.000949 µM) of 71.4%, a viability, T/C (second compound 0.0316 µM, first compound 0.003 µM) of 58.2% and a viability, T/C (second compound 0.0316 µM, first compound 0.00949 µM) of 53.7%. The viability, T/C (second compound 0.0316 µM, first compound 0.03 µM) was 48%, the viability, T/C (second compound 0.0316 µM, first compound 0.0949 µM) was 49.9% and the viability, T/C (second compound 0.0316 µM, first compound 0.3 µM) was 54.6%. The viability, T/C (second compound 0.1 µM, first compound 0.000949 µM) was 68.5%, the viability, T/C (second compound 0.1 µM, first compound 0.003 µM) was 53.6% and the viability, T/C (second compound 0.1 µM, first compound 0.00949 µM) was 55.5%. The viability, T/C (second compound 0.1 µM, first compound 0.03 µM) was 52.7%, the viability, T/C (second compound 0.1 µM, first compound 0.0949 µM) was 50.5% and the viability, T/C (second compound 0.1 µM, first compound 0.3 µM) was 49.4%. For the same compound, the viability, T/C (second compound 0.316 µM, first compound 0.000949 µM) was 51.5%, the viability, T/C (second compound 0.316 µM, first compound 0.003 µM) was 46.7% and the viability, T/C (second compound 0.316 µM, first compound 0.00949 µM) was 38.5%. It also gave a viability, T/C (second compound 0.316 µM, first compound 0.03 µM) of 45.4%, a viability, T/C (second compound 0.316 µM, first compound 0.0949 µM) of 44.4% and a viability, T/C (second compound 0.316 µM, first compound 0.3 µM) of 49.6%. For the same compound, the viability, T/C (second compound 1 µM, first compound 0.000949 µM) was 33.8%, the viability, T/C (second compound 1 µM, first compound 0.003 µM) was 40.2% and the viability, T/C (second compound 1 µM, first compound 0.00949 µM) was 35.6%. For the same compound, the viability, T/C (second compound 1 µM, first compound 0.03 µM) was 36.3%, the viability, T/C (second compound 1 µM, first compound 0.0949 µM) was 38.6% and the viability, T/C (second compound 1 µM, first compound 0.3 µM) was 38.9%. It also gave a viability, T/C (second compound 3.16 µM, first compound 0.000949 µM) of 30.9%, a viability, T/C (second compound 3.16 µM, first compound 0.003 µM) of 30.8% and a viability, T/C (second compound 3.16 µM, first compound 0.00949 µM) of 33.6%. It also gave a viability, T/C (second compound 3.16 µM, first compound 0.03 µM) of 35.1%, a viability, T/C (second compound 3.16 µM, first compound 0.0949 µM) of 34.4% and a viability, T/C (second compound 3.16 µM, first compound 0.3 µM) of 34.5%. For the same compound, the viability, T/C (second compound 10 µM, first compound 0.000949 µM) was 23%, the viability, T/C (second compound 10 µM, first compound 0.003 µM) was 30.1% and the viability, T/C (second compound 10 µM, first compound 0.00949 µM) was 24.3%. The viability, T/C (second compound 10 µM, first compound 0.03 µM) was 24.9%, the viability, T/C (second compound 10 µM, first compound 0.0949 µM) was 27.5% and the viability, T/C (second compound 10 µM, first compound 0.3 µM) was 26%.
